Values quoted from earlier work, collected in publication PMC9516332 (Frontiers in Oncology, 2022).
Where two headings read alike, the source gives them in different places.

Columns and labels:
Details in all cases: cited from earlier work
[1] = target: panel of 255 wild-type kinases (Homo sapiens, UniProt Q9H4A3)
[2] = target: panel of 255 wild-type kinases (Homo sapiens, UniProt P16234)
[3] = target: T1, panel of 255 wild-type kinases (Homo sapiens, UniProt P51817)
T1 sequence (P51817 1-358): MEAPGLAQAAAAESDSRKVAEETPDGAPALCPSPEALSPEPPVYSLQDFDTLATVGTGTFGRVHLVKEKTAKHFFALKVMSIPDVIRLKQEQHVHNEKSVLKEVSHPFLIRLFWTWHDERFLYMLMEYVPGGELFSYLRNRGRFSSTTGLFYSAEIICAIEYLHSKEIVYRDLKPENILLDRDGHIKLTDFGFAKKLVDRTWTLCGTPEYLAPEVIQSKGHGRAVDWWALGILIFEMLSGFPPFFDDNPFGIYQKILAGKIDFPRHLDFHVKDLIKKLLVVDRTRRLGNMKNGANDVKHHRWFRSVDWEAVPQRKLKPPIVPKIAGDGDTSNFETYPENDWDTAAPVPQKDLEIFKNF

[4] = target: panel of 255 wild-type kinases (Homo sapiens, UniProt Q9NYY3)
[5] = target: panel of 255 wild-type kinases (Homo sapiens, UniProt Q15759)
[6] = target: panel of 255 wild-type kinases (Homo sapiens, UniProt Q9Y3S1)
[7] = target: panel of 255 wild-type kinases (Homo sapiens, UniProt O14578)
[8] = target: T2, panel of 255 wild-type kinases (Homo sapiens, UniProt P42680)
T2 sequence (P42680 1-631): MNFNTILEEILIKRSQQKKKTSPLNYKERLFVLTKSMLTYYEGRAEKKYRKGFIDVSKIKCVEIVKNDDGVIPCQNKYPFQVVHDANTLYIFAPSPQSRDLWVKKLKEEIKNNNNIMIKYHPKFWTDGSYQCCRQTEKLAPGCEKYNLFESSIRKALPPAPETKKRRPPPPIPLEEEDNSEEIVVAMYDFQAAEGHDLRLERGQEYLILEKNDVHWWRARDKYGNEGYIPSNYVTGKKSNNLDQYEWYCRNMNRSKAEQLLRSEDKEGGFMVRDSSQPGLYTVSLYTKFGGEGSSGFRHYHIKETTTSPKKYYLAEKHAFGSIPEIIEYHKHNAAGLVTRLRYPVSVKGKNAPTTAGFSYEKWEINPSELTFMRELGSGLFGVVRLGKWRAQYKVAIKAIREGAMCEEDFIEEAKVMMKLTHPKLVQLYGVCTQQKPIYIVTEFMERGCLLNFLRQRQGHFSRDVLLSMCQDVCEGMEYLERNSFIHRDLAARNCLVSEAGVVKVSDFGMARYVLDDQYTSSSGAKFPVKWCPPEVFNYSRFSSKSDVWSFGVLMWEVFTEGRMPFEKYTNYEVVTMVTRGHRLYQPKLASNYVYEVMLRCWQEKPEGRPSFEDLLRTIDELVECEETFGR

[9] = target: T3, panel of 255 wild-type kinases (Homo sapiens, UniProt Q8NE63)
T3 sequence (Q8NE63 1-616): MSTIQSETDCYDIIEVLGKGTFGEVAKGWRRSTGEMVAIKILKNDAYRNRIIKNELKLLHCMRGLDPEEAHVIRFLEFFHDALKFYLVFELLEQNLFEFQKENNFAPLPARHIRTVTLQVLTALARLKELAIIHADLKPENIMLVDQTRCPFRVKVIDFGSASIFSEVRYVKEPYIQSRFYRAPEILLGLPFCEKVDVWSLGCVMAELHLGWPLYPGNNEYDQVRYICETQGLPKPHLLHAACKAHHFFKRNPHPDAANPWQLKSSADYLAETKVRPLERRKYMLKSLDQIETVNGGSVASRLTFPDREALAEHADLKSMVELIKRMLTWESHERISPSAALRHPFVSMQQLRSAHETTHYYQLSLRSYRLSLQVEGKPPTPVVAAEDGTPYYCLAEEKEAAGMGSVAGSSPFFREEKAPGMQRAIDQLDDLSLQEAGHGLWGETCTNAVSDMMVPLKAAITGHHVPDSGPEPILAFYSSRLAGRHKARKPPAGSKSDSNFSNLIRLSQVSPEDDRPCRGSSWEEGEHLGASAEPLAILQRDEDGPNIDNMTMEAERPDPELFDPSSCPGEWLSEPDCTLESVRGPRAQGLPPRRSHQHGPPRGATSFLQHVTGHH

[10] = target: panel of 255 wild-type kinases (Homo sapiens, UniProt P27361)
[11] = target: panel of 255 wild-type kinases (Homo sapiens, UniProt Q07912)
[12] = target: panel of 255 wild-type kinases (Homo sapiens, UniProt P29317)
[13] = kinase WNK1, 1 µmol/L single concentration, ref DOI: 10.1158/1535-7163.MCT-18-0877
[14] = kinase PDGFRα, 1 µmol/L single concentration, ref DOI: 10.1158/1535-7163.MCT-18-0877
[15] = kinase PRKX, 1 µmol/L single concentration, ref DOI: 10.1158/1535-7163.MCT-18-0877
[16] = kinase PLK2, 1 µmol/L single concentration, ref DOI: 10.1158/1535-7163.MCT-18-0877
[17] = p38β, 1 µmol/L single concentration, ref DOI: 10.1158/1535-7163.MCT-18-0877
[18] = kinase WNK2, 1 µmol/L single concentration, ref DOI: 10.1158/1535-7163.MCT-18-0877
[19] = kinase CRIK, 1 µmol/L single concentration, ref DOI: 10.1158/1535-7163.MCT-18-0877
[20] = kinase TEC, 1 µmol/L single concentration, ref DOI: 10.1158/1535-7163.MCT-18-0877
[21] = kinase HIPK4, 1 µmol/L single concentration, ref DOI: 10.1158/1535-7163.MCT-18-0877
[22] = kinase Erk1, 1 µmol/L single concentration, ref DOI: 10.1158/1535-7163.MCT-18-0877
[23] = ACK kinase assay, 1 µmol/L single concentration, ref DOI: 10.1158/1535-7163.MCT-18-0877
[24] = kinase EPHA2, 1 µmol/L single concentration, ref DOI: 10.1158/1535-7163.MCT-18-0877

| Compound | %-inhibition at 1 µmol/L, WNK1 [1, 13] [%] | %-inhibition at 1 µmol/L, PDGFRα [2, 14] [%] | %-inhibition at 1 µmol/L, PRKX [3, 15] [%] | %-inhibition at 1 µmol/L, PLK2 [4, 16] [%] | %-inhibition, p38β [5, 17] [%] | %-inhibition at 1 µmol/L, WNK2 [6, 18] [%] | %-inhibition at 1 µmol/L, CRIK [7, 19] [%] | %-inhibition at 1 µmol/L, TEC [8, 20] [%] | %-inhibition at 1 µmol/L, HIPK4 [9, 21] [%] | %-inhibition at 1 µmol/L, Erk1 [10, 22] [%] | %-inhibition ACK [11, 23] [%] | %-inhibition at 1 µmol/L, EPHA2 [12, 24] [%] | also measured |
| --- | --- | --- | --- | --- | --- | --- | --- | --- | --- | --- | --- | --- | --- |
| CC#CC(=O)N1CCC[C@H]1c1nc(-c2ccc(C(=O)Nc3ccccn3)cc2)c2c(N)nccn12 [acalabrutinib] | 5.36 | 1.38 | -4.59 | 2.47 | -3 | 0.787 | -5 | 96 | -10 | -2.38 | 14 | -3.6 | – |
| CCc1cc2c(cc1N1CCC(N3CCOCC3)CC1)C(C)(C)c1[nH]c3cc(C#N)ccc3c1C2=O [alectinib] | 6 | 43 | 1.81 | 6 | 0.144 | 1.16 | 2.31 | 1.06 | 26 | 1.41 | 42 | 1.88 | – |
| COc1cc(N2CCC(N3CCN(C)CC3)CC2)ccc1Nc1ncc(Cl)c(Nc2ccccc2P(C)(C)=O)n1 [brigatinib] | – | – | – | – | – | – | – | – | – | – | – | – | %-inhibition at 1 µmol/L, WNK1 [1]: 5%; %-inhibition at 1 µmol/L, PDGFRα [2]: 96%; %-inhibition at 1 µmol/L, PRKX [3]: 47%; %-inhibition at 1 µmol/L, PLK2 [4]: 0.275%; %-inhibition, p38β [5]: 3.38%; %-inhibition at 1 µmol/L, WNK2 [6]: 0.119%; %-inhibition at 1 µmol/L, CRIK [7]: 3.33%; %-inhibition at 1 µmol/L, TEC [8]: 40%; %-inhibition at 1 µmol/L, HIPK4 [9]: 81%; %-inhibition at 1 µmol/L, Erk1 [10]: 3.68%; %-inhibition ACK [11]: 104%; %-inhibition at 1 µmol/L, EPHA2 [12]: -2.16% |
| Cc1cc(Nc2ncc(Cl)c(Nc3ccccc3S(=O)(=O)C(C)C)n2)c(OC(C)C)cc1C1CCNCC1 [ceritinib] | 4.45 | 61 | 11 | -3.54 | 2.35 | -1.28 | -0.933 | -8 | 36 | 35 | 103 | 5.69 | – |
| O=C(c1ccc(F)c(F)c1Nc1ccc(I)cc1F)N1CC(O)([C@@H]2CCCCN2)C1 [cobimetinib] | -0.124 | 11 | 2.17 | -0.309 | 4 | 5 | 0.417 | -1 | 1.8 | -0.916 | 7 | 2.79 | – |
| C[C@@H](Oc1cc(-c2cnn(C3CCNCC3)c2)cnc1N)c1c(Cl)ccc(F)c1Cl [crizotinib] | – | – | – | – | – | – | – | – | – | – | – | – | %-inhibition at 1 µmol/L, WNK1 ([1]; kinase WNK1, 1 µmol/L single concentration, ref DOI: 10.1371/journal.pone.0092146): -3%; %-inhibition at 1 µmol/L, PDGFRα ([2]; kinase PDGFRα, 1 µmol/L single concentration, ref DOI: 10.1371/journal.pone.0092146): 49%; %-inhibition at 1 µmol/L, PRKX ([3]; kinase PRKX, 1 µmol/L single concentration, ref DOI: 10.1371/journal.pone.0092146): -7%; %-inhibition at 1 µmol/L, PLK2 ([4]; kinase PLK2, 1 µmol/L single concentration, ref DOI: 10.1371/journal.pone.0092146): 1.1%; %-inhibition, p38β ([5]; p38β, 1 µmol/L single concentration, ref DOI: 10.1371/journal.pone.0092146): 0.299%; %-inhibition at 1 µmol/L, WNK2 ([6]; kinase WNK2, 1 µmol/L single concentration, ref DOI: 10.1371/journal.pone.0092146): -4%; %-inhibition at 1 µmol/L, CRIK ([7]; kinase CRIK, 1 µmol/L single concentration, ref DOI: 10.1371/journal.pone.0092146): -12%; %-inhibition at 1 µmol/L, TEC ([8]; kinase TEC, 1 µmol/L single concentration, ref DOI: 10.1371/journal.pone.0092146): 1.53%; %-inhibition at 1 µmol/L, HIPK4 ([9]; kinase HIPK4, 1 µmol/L single concentration, ref DOI: 10.1371/journal.pone.0092146): 31%; %-inhibition at 1 µmol/L, Erk1 ([10]; kinase Erk1, 1 µmol/L single concentration, ref DOI: 10.1371/journal.pone.0092146): -2%; %-inhibition ACK ([11]; ACK kinase assay, 1 µmol/L single concentration, ref DOI: 10.1371/journal.pone.0092146): 56%; %-inhibition at 1 µmol/L, EPHA2 ([12]; kinase EPHA2, 1 µmol/L single concentration, ref DOI: 10.1371/journal.pone.0092146): 86% |
